Values quoted from earlier work, collected in patent US20070219127A1, “CYCLOSPORIN A COMPOSITIONS” (priority 2006, published 2007).

Structure (SMILES) | systemically administered elimination half-life
FC1(F)C(F)(F)C(F)(F)C2(F)C(F)(F)C(F)(F)C(F)(F)C(F)(F)C2(F)C1(F)F (centres unmarked) [PFD, Perfluoro (decahydronaphthalene)] | about 7 days
FC1(F)C(F)(F)C(F)(F)C2(F)C(F)(C1(F)F)C(F)(F)C(F)(F)C1(F)C(F)(F)C(F)(F)C(F)(F)C(F)(F)C12F (centres unmarked) [PPP, perfluoroperhydrophenanthrene] | about 7 days
